# Reference: ChEMBL document CHEMBL1926609, “Synthesis of 9-phosphonoalkyl and 9-phosphonoalkoxyalkyl purines: evaluation of their ability to act as inhibitors of Plasmodium falciparum, Plasmodium vivax and human hypoxanthine-guanine-(xanthine) phosphoribosyltransferases” (Bioorg Med Chem, 2012)
# Legend:
# [1] = target: T1, Hypoxanthine-guanine phosphoribosyltransferase (Homo sapiens, UniProt P00492); experiment: Inhibition of human HGPRT
# T1 sequence (P00492 whole entry): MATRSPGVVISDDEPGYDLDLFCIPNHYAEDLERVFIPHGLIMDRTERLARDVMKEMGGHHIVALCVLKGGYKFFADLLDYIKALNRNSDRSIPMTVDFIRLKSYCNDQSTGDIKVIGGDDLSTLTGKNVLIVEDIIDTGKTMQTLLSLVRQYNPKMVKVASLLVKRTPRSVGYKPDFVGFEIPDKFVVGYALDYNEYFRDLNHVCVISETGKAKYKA
# [2] = Inhibition of Plasmodium falciparum HGXPRT
# [3] = Inhibition of Plasmodium vivax HGPRT
Compound,Ki [1],Ki [2],Ki [3]
O=P(O)(O)CCCCCn1cnc2c(O)ncnc21,> 100 µM,21 µM,
Nc1nc(O)c2ncn(CCCCCCCP(=O)(O)O)c2n1,5 µM,10 µM,
Nc1nc(O)c2ncn(COCCCCP(=O)(O)O)c2n1,0.4 µM,200 µM,> 100 µM
Nc1nc2c(ncn2CCP(=O)(O)O)c(=O)[nH]1,> 100 µM,> 100 µM,> 100 µM
Nc1nc2c(ncn2CP(=O)(O)O)c(=O)[nH]1,> 100 µM,> 100 µM,> 100 µM
O=c1[nH]cnc2c1ncn2CP(=O)(O)O,1.9 µM,> 100 µM,> 100 µM
O=c1[nH]cnc2c1ncn2CCP(=O)(O)O,3.4 µM,2.2 µM,> 100 µM
Nc1nc2c(ncn2CCCP(=O)(O)O)c(=O)[nH]1,> 100 µM,> 100 µM,> 100 µM
O=c1[nH]cnc2c1ncn2CCCP(=O)(O)O,> 100 µM,> 100 µM,> 100 µM
O=c1[nH]cnc2c1ncn2CCCCP(=O)(O)O,> 100 µM,> 100 µM,> 100 µM
O=c1[nH]cnc2c1ncn2COCCP(=O)(O)O,56 µM,25 µM,30 µM
Nc1nc2c(ncn2COCCCP(=O)(O)O)c(=O)[nH]1,3 µM,6.7 µM,1 µM
Nc1nc2c(ncn2CCCCCCP(=O)(O)O)c(=O)[nH]1,0.5 µM,> 100 µM,> 100 µM
O=c1[nH]cnc2c1ncn2CCCCCCP(=O)(O)O,77 µM,97 µM,
O=c1[nH]cnc2c1ncn2COCCCCP(=O)(O)O,28 µM,29 µM,
O=c1[nH]cnc2c1ncn2CCCCCCCP(=O)(O)O,> 100 µM,> 100 µM,> 100 µM
Nc1nc(O)c2ncn(CCCCP(=O)(O)O)c2n1,21 µM,> 100 µM,> 100 µM
Nc1nc(O)c2ncn(COCCP(=O)(O)O)c2n1,31 µM,5 µM,24 µM
Nc1nc(O)c2ncn(CCCCCP(=O)(O)O)c2n1,0.5 µM,2 µM,6 µM
